Results from ChEMBL document CHEMBL4673218, “Kojyl cinnamate esters are peroxisome proliferator-activated receptor α/γ dual agonists” (Bioorg Med Chem, 2018).
Calls of active or inactive are those of the source. The rule behind the calls is not given here.

Key:
[1] = Induction of adipogenesis in human AT-MSC assessed as adiponectin secretion at 30 uM in IDX medium incubated for 5 days by ELISA (reference value: 100 +/- 15 pg/ml); assay type: functional, Adipose tissue derived mesenchymal stem cell; settings: time 5 day
[2] = target: T1, PPAR alpha/gamma (Homo sapiens) (UniProt P37231+Q07869); assay: Agonist activity at PPARalpha/PPARgamma in human AT-MSC cells assessed as upregulation of FASN mRNA at 10 uM incubated for 3 days by qRT-PCR analysis; assay type: cell-based; settings: Adipose tissue derived mesenchymal stem cell, time 3.0 day
[3] = Induction of adipogenesis in human AT-MSC assessed as adiponectin secretion in IDX medium incubated for 5 days by ELISA; assay type: functional; settings: adipose tissue derived mesenchymal stem cell
NHEK [4] = assay: Inhibition of UVB-induced PGE2 level in human NHEK cells at 10 uM incubated for 24 hrs by ELISA; assay type: functional, cell-based
[5] = tested on: Adipose tissue derived mesenchymal stem cell; assay: Induction of adipogenesis in human AT-MSC cells assessed as increase in intracellular lipid accumulation at 30 uM in IDX medium incubated for 5 days by Oil Red O staining based inverted phase microscopy relative to IDX control; assay type: functional; settings: time 5.0 day
NHEK [6] = assay: Inhibition of UVB-induced MMP1 mRNA in human NHEK cells at 10 uM incubated for 24 hrs by qRT-PCR analysis; assay type: functional, cell-based
[7] = target: T1, PPAR alpha/gamma (Homo sapiens); assay: Agonist activity at PPARalpha/PPARgamma in human NHEK cells assessed as upregulation of SCD1 mRNA at 10 uM incubated for 3 days by qRT-PCR analysis; assay type: cell-based; settings: filed as agonist, time 3.0 day
[8] = target: T1, PPAR alpha/gamma (Homo sapiens); assay: Agonist activity at PPARalpha/PPARgamma in human AT-MSC cells assessed as upregulation of ACACB mRNA at 10 uM incubated for 3 days by qRT-PCR analysis; assay type: cell-based; settings: Adipose tissue derived mesenchymal stem cell, time 3.0 day
[9] = target: T2, Peroxisome proliferator-activated receptor alpha (Homo sapiens) (UniProt Q07869); assay: (§1) Binding affinity to human recombinant PPARalpha by Cheng-Prusoff equation based competitive binding TR-FRET assay; settings: filed as agonist
T2 sequence (whole entry): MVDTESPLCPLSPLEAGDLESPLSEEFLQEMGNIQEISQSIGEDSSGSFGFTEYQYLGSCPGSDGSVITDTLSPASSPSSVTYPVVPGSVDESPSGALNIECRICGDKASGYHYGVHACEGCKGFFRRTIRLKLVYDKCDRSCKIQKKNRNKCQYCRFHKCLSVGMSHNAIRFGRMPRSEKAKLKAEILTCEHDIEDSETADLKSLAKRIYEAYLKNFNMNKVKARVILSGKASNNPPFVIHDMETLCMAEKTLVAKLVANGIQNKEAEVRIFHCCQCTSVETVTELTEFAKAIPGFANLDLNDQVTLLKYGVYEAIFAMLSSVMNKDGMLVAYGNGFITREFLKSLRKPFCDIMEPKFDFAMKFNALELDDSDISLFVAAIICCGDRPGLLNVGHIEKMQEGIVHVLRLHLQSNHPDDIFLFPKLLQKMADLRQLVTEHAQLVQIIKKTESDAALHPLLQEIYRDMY

[10] = target: T3, Peroxisome proliferator-activated receptor alpha (Homo sapiens, UniProt Q07869); assay: as §1
T3 sequence (Q07869 whole entry): T2 sequence (whole entry)

[11] = target: T1, PPAR alpha/gamma (Homo sapiens); assay: Agonist activity at PPARalpha/PPARgamma in human AT-MSC cells assessed as upregulation of SCD1 mRNA at 10 uM incubated for 3 days by qRT-PCR analysis; assay type: cell-based; settings: Adipose tissue derived mesenchymal stem cell, filed as agonist, time 3.0 day
[12] = target: T1, PPAR alpha/gamma (Homo sapiens); assay: Agonist activity at PPARalpha/PPARgamma in human NHEK cells assessed as upregulation of FASN mRNA at 10 uM incubated for 3 days by qRT-PCR analysis; assay type: cell-based; settings: time 3.0 day
[13] = target: T1, PPAR alpha/gamma (Homo sapiens); assay: Agonist activity at PPARalpha/PPARgamma in human NHEK cells assessed as upregulation of FADS2 mRNA at 10 uM incubated for 3 days by qRT-PCR analysis; assay type: cell-based; settings: filed as agonist, time 3.0 day
[14] = target: T1, PPAR alpha/gamma (Homo sapiens); assay: Agonist activity at PPARalpha/PPARgamma in human NHEK cells assessed as upregulation of FADS1 mRNA at 10 uM incubated for 3 days by qRT-PCR analysis; assay type: cell-based; settings: filed as agonist, time 3.0 day
[15] = target: T1, PPAR alpha/gamma (Homo sapiens); assay: Agonist activity at PPARalpha/PPARgamma in human AT-MSC cells assessed as upregulation of FADS2 mRNA at 10 uM incubated for 3 days by qRT-PCR analysis; assay type: cell-based; settings: Adipose tissue derived mesenchymal stem cell, filed as agonist, time 3.0 day
NHEK [16] = assay: Inhibition of UVB-induced PTGS2 mRNA in human NHEK cells at 10 uM incubated for 24 hrs by qRT-PCR analysis; assay type: functional, cell-based
[17] = target: T1, PPAR alpha/gamma (Homo sapiens); assay: Agonist activity at PPARalpha/PPARgamma in human AT-MSC cells assessed as upregulation of adiponectin mRNA at 10 uM incubated for 3 days by qRT-PCR analysis; assay type: cell-based; settings: Adipose tissue derived mesenchymal stem cell, filed as agonist, time 3.0 day
[18] = target: T1, PPAR alpha/gamma (Homo sapiens); assay: Agonist activity at PPARalpha/PPARgamma in human NHEK cells assessed as upregulation of ACACB mRNA at 10 uM incubated for 3 days by qRT-PCR analysis; assay type: cell-based; settings: time 3.0 day
[19] = target: T1, PPAR alpha/gamma (Homo sapiens); assay: Agonist activity at PPARalpha/PPARgamma in human AT-MSC cells assessed as upregulation of HMGCR mRNA at 10 uM incubated for 3 days by qRT-PCR analysis; assay type: cell-based; settings: Adipose tissue derived mesenchymal stem cell, filed as agonist, time 3.0 day
[20] = target: T4, Peroxisome proliferator-activated receptor gamma (Homo sapiens) (UniProt P37231); assay: (§2) Binding affinity to human recombinant PPARgamma by Cheng-Prusoff equation based competitive binding TR-FRET assay; settings: filed as agonist
T4 sequence (whole entry): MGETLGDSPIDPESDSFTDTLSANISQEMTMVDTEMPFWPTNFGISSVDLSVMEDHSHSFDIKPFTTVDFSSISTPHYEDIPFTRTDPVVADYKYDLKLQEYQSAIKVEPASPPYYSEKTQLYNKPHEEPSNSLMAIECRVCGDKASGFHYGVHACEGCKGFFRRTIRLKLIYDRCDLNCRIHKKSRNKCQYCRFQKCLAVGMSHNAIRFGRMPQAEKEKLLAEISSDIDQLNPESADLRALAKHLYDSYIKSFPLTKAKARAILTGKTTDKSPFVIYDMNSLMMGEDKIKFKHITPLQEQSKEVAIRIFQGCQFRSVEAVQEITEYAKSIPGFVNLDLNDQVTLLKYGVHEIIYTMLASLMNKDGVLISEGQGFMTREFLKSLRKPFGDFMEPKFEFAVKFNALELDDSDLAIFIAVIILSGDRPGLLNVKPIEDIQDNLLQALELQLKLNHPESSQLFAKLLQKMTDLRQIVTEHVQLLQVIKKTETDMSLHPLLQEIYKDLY

[21] = target: T5, Peroxisome proliferator-activated receptor gamma (Homo sapiens, UniProt P37231); assay: as §2
T5 sequence (P37231 whole entry): T4 sequence (whole entry)

[22] = tested on: Adipose tissue derived mesenchymal stem cell; assay: Induction of adipogenesis in human AT-MSC cells assessed as increase in lipid droplet at 30 uM in IDX medium incubated for 5 days by Oil Red O staining based inverted phase microscopy relative to IDX control; assay type: functional; settings: time 5.0 day
[23] = target: T1, PPAR alpha/gamma (Homo sapiens); assay: Agonist activity at PPARalpha/PPARgamma in human AT-MSC cells assessed as upregulation of HMGCS2 mRNA at 10 uM incubated for 3 days by qRT-PCR analysis; assay type: cell-based; settings: Adipose tissue derived mesenchymal stem cell, filed as agonist, time 3.0 day
NHEK [24] = assay: Inhibition of UVB-induced MMP1 level in human NHEK cells at 10 uM incubated for 24 hrs by ELISA; assay type: functional, cell-based
[25] = target: T1, PPAR alpha/gamma (Homo sapiens); assay: Agonist activity at PPARalpha/PPARgamma in human AT-MSC cells assessed as upregulation of FABP4 mRNA at 10 uM incubated for 3 days by qRT-PCR analysis; assay type: cell-based; settings: Adipose tissue derived mesenchymal stem cell, filed as agonist, time 3.0 day
[26] = target: T1, PPAR alpha/gamma (Homo sapiens); assay: Agonist activity at PPARalpha/PPARgamma in human NHEK cells assessed as upregulation of HMGCR mRNA at 10 uM incubated for 3 days by qRT-PCR analysis; assay type: cell-based; settings: time 3.0 day
[27] = target: T1, PPAR alpha/gamma (Homo sapiens); assay: Agonist activity at PPARalpha/PPARgamma in human NHEK cells assessed as upregulation of HMGCS2 mRNA at 10 uM incubated for 3 days by qRT-PCR analysis; assay type: cell-based; settings: filed as agonist, time 3.0 day
[28] = Induction of adipogenesis in human AT-MSC assessed as adiponectin secretion at 30 uM in IDX medium incubated for 5 days by ELISA relative to IDX control; assay type: functional, Adipose tissue derived mesenchymal stem cell; settings: time 5 day
[29] = Induction of adipogenesis in human AT-MSC assessed as adiponectin secretion at 300 uM in IDX medium incubated for 5 days by ELISA (reference value: 100 +/- 15 pg/ml); assay type: functional, Adipose tissue derived mesenchymal stem cell; settings: time 5 day
NHEK [30] = assay: Inhibition of UVB-induced MMP1 mRNA in human NHEK cells at 1 uM incubated for 24 hrs by qRT-PCR analysis; assay type: functional, cell-based
NHEK [31] = assay: Inhibition of UVB-induced PGE2 level in human NHEK cells at 1 uM incubated for 24 hrs by ELISA; assay type: functional, cell-based
NHEK [32] = assay: Inhibition of UVB-induced PTGS2 mRNA in human NHEK cells at 1 uM incubated for 24 hrs by qRT-PCR analysis; assay type: functional, cell-based
NHEK [33] = assay: Inhibition of UVB-induced MMP1 level in human NHEK cells at 1 uM incubated for 24 hrs by ELISA; assay type: functional, cell-based

COc1ccc(/C=C/C(=O)OCc2cc(=O)c(O)co2)cc1
Activity [1]: 138 pg/mL

COc1cccc(/C=C/C(=O)OCc2cc(=O)c(O)co2)c1OC
Activity ([2]; filed as agonist): Active
EC50 [3]: 14.8 µM
inhibition (NHEK [4]): Active
Activity [5]: Active
inhibition (NHEK [6]): Active
Activity [7]: Active
Activity ([8]; filed as agonist): Active
Activity [9]: Dose-dependent effect
Ki [10]: 8 µM
Activity [1]: 281 pg/mL
Activity [11]: Active
Activity [12]: inactive
Activity [13]: Active
Activity [14]: Active
Activity [15]: Active
inhibition (NHEK [16]): Active
Activity [17]: Active
Activity [18]: inactive
Activity [19]: Active
Activity [20]: Dose-dependent effect
Ki [21]: 6.7 µM
Activity [22]: Active
Activity [23]: Active
inhibition (NHEK [24]): Active
Activity [25]: Active
Activity [26]: inactive
Activity [27]: Active
fold change (FC) [28]: 2.81

COc1ccc(/C=C/C(=O)OCc2cc(=O)c(O)co2)c(OC)c1OC
Activity [1]: 137 pg/mL

CC(=O)Oc1ccccc1C(=O)O [ASPIRIN]
Activity [29]: 197 pg/mL

COc1ccccc1/C=C/C(=O)OCc1cc(=O)c(O)co1
EC50 [3]: 20.6 µM
Activity [5]: Active
Activity [1]: 221 pg/mL
Activity [22]: Active
fold change (FC) [28]: 2.21

O=C(/C=C/c1ccc2c(c1)OCO2)OCc1cc(=O)c(O)co1
Activity [1]: 164 pg/mL

Cc1cccc(Nc2cc(Cl)nc(SCC(=O)O)n2)c1C
Activity [2]: inactive
inhibition (NHEK [4]): Active
inhibition (NHEK [6]): Active
Activity [8]: inactive
Activity [11]: Active
Activity [12]: inactive
Activity [15]: Active
inhibition (NHEK [16]): Active
Activity [17]: Active
Activity [18]: inactive
Activity [19]: Active
fold change (FC) [23]: 4.53
inhibition (NHEK [24]): Active
Activity [25]: Active
Activity [26]: inactive

COc1cc(/C=C/C(=O)OCc2cc(=O)c(O)co2)cc(OC)c1
Activity [1]: 67 pg/mL

COc1cc(OC)c(/C=C/C(=O)OCc2cc(=O)c(O)co2)c(OC)c1
Activity [1]: 87 pg/mL

COc1cc(OC)c(OC)cc1/C=C/C(=O)OCc1cc(=O)c(O)co1
Activity [1]: 103 pg/mL

COc1ccc(/C=C/C(=O)OCc2cc(=O)c(O)co2)cc1OC
Activity [1]: 120 pg/mL

COc1cccc(/C=C/C(=O)OCc2cc(=O)c(O)co2)c1
EC50 [3]: 36.6 µM
Activity [5]: Active
Activity [1]: 265 pg/mL
Activity [22]: Active
fold change (FC) [28]: 2.65

Cc1c(C)c2c(c(C)c1O)CCC(C)(COc1ccc(CC3SC(=O)NC3=O)cc1)O2 (configuration not stated) [TROGLITAZONE]
EC50 [3]: 0.86 µM
inhibition (NHEK [30]): Active
inhibition (NHEK [31]): inactive
inhibition (NHEK [32]): inactive
inhibition (NHEK [33]): Active

COc1cc(/C=C/C(=O)OCc2cc(=O)c(O)co2)cc(OC)c1OC
Activity [1]: 137 pg/mL
